Assays:
[1] = target: T1, PTPN2 (HiBIT-PTPN2 in 293T.109 cells) (Homo sapiens, UniProt P17706); assay: HiBiT Degradation 293T.109 PTPN2 (Nano-Glo HiBiT Lytic Assay); type: cell-based; details: 24.0 hours
T1 construct: expressed in transfected cells; host or cells: 293T.109 (293T WT from ATCC)
T1 sequence (P17706 1-415): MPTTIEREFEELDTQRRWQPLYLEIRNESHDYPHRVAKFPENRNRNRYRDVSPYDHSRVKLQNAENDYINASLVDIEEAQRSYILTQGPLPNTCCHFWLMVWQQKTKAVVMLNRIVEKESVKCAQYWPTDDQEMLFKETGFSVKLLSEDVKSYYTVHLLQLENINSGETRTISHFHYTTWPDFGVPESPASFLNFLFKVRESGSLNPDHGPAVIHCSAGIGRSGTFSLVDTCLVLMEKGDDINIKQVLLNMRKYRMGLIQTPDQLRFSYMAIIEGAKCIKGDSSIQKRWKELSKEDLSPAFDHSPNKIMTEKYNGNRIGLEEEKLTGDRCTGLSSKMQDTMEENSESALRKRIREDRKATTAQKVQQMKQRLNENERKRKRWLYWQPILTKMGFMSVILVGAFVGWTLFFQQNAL
Procedure, shortened: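 293T.109 cells with ectopic N-terminal HiBiT-tagged PTPN2 (5000/well) exposed to compounds for 24 h at 37 °C, 5% CO2; 11-point half-log titration from 10 μM top, duplicates. Remaining HiBiT-PTPN2 read as luminescence with Nano-Glo HiBiT lytic reagent, normalised to untreated cells (0%) and reagent-free wells.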

PTPN2 (B16F10.4 cells) = target: T2, PTPN2 (B16F10.4 cells) (Mus musculus, UniProt Q06180); assay: HiBiT Degradation B16F10.4 PTPN2; type: cell-based; details: 24.0 hours
T2 construct: HiBiT; host or cells: B16F10.4
T2 sequence (Q06180 1-406): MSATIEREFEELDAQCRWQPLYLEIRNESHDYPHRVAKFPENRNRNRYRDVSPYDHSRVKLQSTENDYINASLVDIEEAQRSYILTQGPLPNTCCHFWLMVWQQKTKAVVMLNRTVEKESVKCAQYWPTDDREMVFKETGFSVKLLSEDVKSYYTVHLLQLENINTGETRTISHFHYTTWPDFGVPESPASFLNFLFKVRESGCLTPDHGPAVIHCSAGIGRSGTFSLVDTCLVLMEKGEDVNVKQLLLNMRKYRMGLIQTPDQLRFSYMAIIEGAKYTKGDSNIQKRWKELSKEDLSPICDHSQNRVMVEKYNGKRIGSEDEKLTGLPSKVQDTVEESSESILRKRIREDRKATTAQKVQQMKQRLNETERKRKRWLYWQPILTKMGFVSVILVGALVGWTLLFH

Structure (SMILES)	DC50 [1] [µM]	DC50 (PTPN2 (B16F10.4 cells)) [µM]
CC1(C)C[C@@H](Nc2cccc(-c3sc(C(=O)O)c(OCC(=O)O)c3Cl)c2)CCN1S(=O)(=O)Cc1cccc(NC(=O)C2CCN(C(=O)CNc3ccc4c(c3)C(=O)N(C3CCC(=O)NC3=O)C4=O)CC2)c1 (stereo partly drawn) [Example 43, 3-(carboxymethoxy)-4-chloro-5-[3-[[(4S)-1-[[3-[[1-[2-[[2-(2,6-dioxo-3-piperidyl)-1,3-dioxo-isoindolin-5-yl]amino]acetyl]piperidine-4-carbonyl]amino]phenyl]methylsulfonyl]-2,2-dimethyl-4-piperidyl]amino]phenyl]thiophene-2-carboxylic acid]	0.05 to 0.2	≥ 1
CC1(C)C[C@@H](Nc2cccc(-c3sc(C(=O)O)c(OCC(=O)O)c3Cl)c2)CCN1S(=O)(=O)Cc1cccc(NC(=O)C2CN(C(=O)CNc3cccc4c3CN(C3CCC(=O)NC3=O)C4=O)C2)c1 (stereo partly drawn) [Example 44, 3-(Carboxymethoxy)-4-chloro-5-(3-(((4S)-1-((3-(1-((2-(2,6-dioxopiperidin-3-yl)-1-oxoisoindolin-4-yl)glycyl)azetidine-3-carboxamido)benzyl)sulfonyl)-2,2-dimethylpiperidin-4-yl)amino)phenyl)thiophene-2-carboxylic acid]	< 0.05	0.2 to 1
O=C(O)COc1c(C(=O)O)sc(-c2cccc(NC3CCN(S(=O)(=O)Cc4cccc(NC(=O)CN5CCC(c6ccc7c(c6)CN(C6CCC(=O)NC6=O)C7=O)CC5)c4)CC3)c2)c1Cl (stereo not drawn) [Example 45]	0.2 to 1	0.2 to 1
CC1(C)C[C@@H](Nc2cccc(-c3sc(C(=O)O)c(OCC(=O)O)c3Cl)c2)CCN1S(=O)(=O)Cc1cccc(NC(=O)CCN2CCC(Nc3cccc4c3CN(C3CCC(=O)NC3=O)C4=O)CC2)c1 (stereo partly drawn) [Example 46, 3-(carboxymethoxy)-4-chloro-5-(3-(((4S)-1-((3-(3-(4-((2-(2,6-dioxopiperidin-3-yl)-1-oxoisoindolin-4-yl)amino)piperidin-1-yl)propanamido)benzyl)sulfonyl)-2,2-dimethylpiperidin-4-yl)amino)phenyl)thiophene-2-carboxylic acid]	< 0.05	0.2 to 1
O=C(O)COc1c(C(=O)O)sc(-c2cccc(NC3CCN(S(=O)(=O)Cc4cccc(NC(=O)CCc5ccc6c(c5)CN(C5CCC(=O)NC5=O)C6=O)c4)CC3)c2)c1Cl (stereo not drawn) [Example 47]	0.2 to 1	0.2 to 1
CC1(C)C[C@@H](Nc2cccc(-c3sc(C(=O)O)c(OCC(=O)O)c3Cl)c2)CCN1S(=O)(=O)Cc1cccc(NC(=O)C2CCN(C(=O)CNc3cccc4c3CN(C3CCC(=O)NC3=O)C4=O)CC2)c1 (stereo partly drawn) [Example 48, 3-(carboxymethoxy)-4-chloro-5-(3-(((4S)-1-((3-(1-((2-(2,6-dioxopiperidin-3-yl)-1-oxoisoindolin-4-yl)glycyl)piperidine-4-carboxamido)benzyl)sulfonyl)-2,2-dimethylpiperidin-4-yl)amino)phenyl)thiophene-2-carboxylic acid]	< 0.05	0.2 to 1
Cn1c(=O)n(C2CCC(=O)NC2=O)c2ccc(CCC(=O)Nc3cccc(CS(=O)(=O)N4CCC(Nc5cccc(-c6sc(C(=O)O)c(OCC(=O)O)c6Cl)c5)CC4)c3)cc21 (stereo not drawn) [Example 49, 3-(carboxymethoxy)-4-chloro-5-(3-((1-((3-(3-(1-(2,6-dioxopiperidin-3-yl)-3-methyl-2-oxo-2,3-dihydro-1H-benzo[d]imidazol-5-yl)propanamido)benzyl)sulfonyl)piperidin-4-yl)amino)phenyl)thiophene-2-carboxylic acid]	0.2 to 1	0.2 to 1
O=C(O)COc1c(C(=O)O)sc(-c2cccc(NC3CCN(S(=O)(=O)Cc4cccc(NC(=O)CCN5CCC(Nc6cccc7c6CN(C6CCC(=O)NC6=O)C7=O)CC5)c4)CC3)c2)c1Cl (stereo not drawn) [Example 50, 3-(carboxymethoxy)-4-chloro-5-[3-[[1-[[3-[3-[4-[[2-(2,6-dioxo-3-piperidyl)-1-oxo-isoindolin-4-yl]amino]-1-piperidyl]propanoylamino]phenyl]methylsulfonyl]-4-piperidyl]amino]phenyl]thiophene-2-carboxylic acid]	< 0.05	≥ 1
Cn1c(=O)n(C2CCC(=O)NC2=O)c2ccc(C3CCN(C(=O)Nc4cccc(CS(=O)(=O)N5CCC(Nc6cccc(-c7sc(C(=O)O)c(OCC(=O)O)c7Cl)c6)CC5)c4)CC3)cc21 (stereo not drawn) [Example 51, 3-(carboxymethoxy)-4-chloro-5-[3-[[1-[[3-[[4-[1-(2,6-dioxo-3-piperidyl)-3-methyl-2-oxo-benzimidazol-5-yl]piperidine-1-carbonyl]amino]phenyl]methylsulfonyl]-4-piperidyl]amino]phenyl]thiophene-2-carboxylic acid]	0.05 to 0.2	0.05 to 0.2
Cn1c(=O)n(C2CCC(=O)NC2=O)c2cccc(C3CCN(C(=O)Nc4cccc(CS(=O)(=O)N5CCC(Nc6cccc(-c7sc(C(=O)O)c(OCC(=O)O)c7Cl)c6)CC5)c4)CC3)c21 (stereo not drawn) [Example 52, 3-(carboxymethoxy)-4-chloro-5-[3-[[1-[[3-[[4-[1-(2,6-dioxo-3-piperidyl)-3-methyl-2-oxo-benzimidazol-4-yl]piperidine-1-carbonyl]amino]phenyl]methylsulfonyl]-4-piperidyl]amino]phenyl]thiophene-2-carboxylic acid]	0.2 to 1	0.2 to 1
Cn1c(=O)n(C2CCC(=O)NC2=O)c2cccc(CCC(=O)Nc3cccc(CS(=O)(=O)N4CCC(Nc5cccc(-c6sc(C(=O)O)c(OCC(=O)O)c6Cl)c5)CC4)c3)c21 (stereo not drawn) [Example 53]	0.05 to 0.2	0.2 to 1
O=C(O)COc1c(C(=O)O)sc(-c2cccc(NC3CCN(S(=O)(=O)Cc4cccc(NC(=O)CN5CCC(n6nc(C7CCC(=O)NC7=O)c7ccccc76)CC5)c4)CC3)c2)c1Cl (stereo not drawn) [Example 54]	≥ 1	≥ 1
Cn1c(=O)n(C2CCC(=O)NC2=O)c2ccc(C3CCN(CC(=O)Nc4cccc(CS(=O)(=O)N5CCC(Nc6cccc(-c7sc(C(=O)O)c(OCC(=O)O)c7Cl)c6)CC5)c4)CC3)cc21 (stereo not drawn) [Example 55, 3-(carboxymethoxy)-4-chloro-5-[3-[[1-[[3-[[2-[4-[1-(2,6-dioxo-3-piperidyl)-3-methyl-2-oxo-benzimidazol-5-yl]-1-piperidyl]acetyl]amino]phenyl]methylsulfonyl]-4-piperidyl]amino]phenyl]thiophene-2-carboxylic acid]	0.05 to 0.2	0.05 to 0.2
CC1(C)C[C@@H](Nc2cccc(-c3sc(C(=O)O)c(OCC(=O)O)c3Cl)c2)CCN1S(=O)(=O)Cc1cccc(NC(=O)CCN2CCC(Oc3cccc4c3CN(C3CCC(=O)NC3=O)C4=O)CC2)c1 (stereo partly drawn) [Example 56]	≥ 1	≥ 1
CC1(C)C[C@@H](Nc2cccc(-c3sc(C(=O)O)c(OCC(=O)O)c3Cl)c2)CCN1S(=O)(=O)Cc1cccc(NC(=O)C2CN(C(=O)CNc3ccc4c(c3)CN(C3CCC(=O)NC3=O)C4=O)C2)c1 (stereo partly drawn) [Example 57, 3-(carboxymethoxy)-4-chloro-5-[3-[[(4S)-1-[[3-[[1-[2-[[2-(2,6-dioxo-3-piperidyl)-1-oxo-isoindolin-5-yl]amino]acetyl]azetidine-3-carbonyl]amino]phenyl]methylsulfonyl]-2,2-dimethyl-4-piperidyl]amino]phenyl]thiophene-2-carboxylic acid]	0.05 to 0.2	≥ 1

Reference: patent publication US20250302815A1, “PROTEIN TYROSINE PHOSPHATASE TARGETING LIGANDS” (CALICO LIFE SCIENCES LLC, priority 2021, published 2025)
